We go through 4 compounds from patent US11510925B2, “Methods and therapeutics to regulate hydrogen sulfide bioavailability” (Board of Supervisors of Louisiana State University and …, priority 2018, dated 2022).

Holding throughout (type): cell-based, human
The subject of assay [1] is ATR cells. The assay is described as follows: Free cellular H2S measurement by HPLC after MBB derivatization, ATR cells. As for the experimental part: (§1) Cells: The human colon cancer cell line DLD1 cell line containing wild-type ATR (ATR cells) or the ATR-Seckel knock-in hypomorphic mutation (ATR-H cells) were a kind gift from Dr. Fred Bunz of the Department of Radiation Oncology and Molecular Radiation Sciences, The Johns Hopkins University School of Medicine. The cells were cultured in DMEM with 5% FBS, 1% penicillin/streptomycin.
(§2) H2S measurements: Bioavailable sulfide levels were measured as previously reported. Levels of free sulfide (H2S) in ATR and ATR-H cells were measured by high performance liquid chromatography (HPLC) after derivatization with excess MBB as stable products sulfide-dibimane (SDB). Briefly, ATR and ATR-H cells were homogenized in Tris.HCl buffer [100 mM Tris.HCl (pH 9.5) and 0.1 mM diethylenetriaminepentaacetic acid (DTPA)]. Cell lysates were derivatized with MBB and then measured by Shimadzu Prominence 20 A equipment with RF-10AXL (excitation wavelength: […] and emission wavelength: […]) and an Eclipse XDB-C18 column (4.6×50 mm, 5 μm). Typical retention times of SDB were 16.5 min. H2S levels were calculated according to the standard SDB.

In assay [2] the test system is ATR-H cells. The assay is described as follows: Free cellular H2S measurement by HPLC after MBB derivatization, ATR-H cells. Here is the method: as §1, §2
For assay [3], the system named is DLD1 cell line containing wild-type ATR (ATR cells). The assay is described as follows: Colony forming-efficiency assay, ATR wild-type cells. Particulars: 11 days; for sensitivity of colony formation to t-BOOH after H2S inhibitor pretreatment: 2 h 1 mM β-cyano-l-alanine, then 15 min 50, 100 or 200 μM t-BOOH. As for the experimental part:
as §1
(§3) Colony forming-efficiency assay: Colony forming-efficiency (CEFA) experiments were performed. In brief, exponentially growing cells were plated for 12 h at 2000 cells/100 mm tissue culture dish in 10 ml appropriate media. The cells were pretreated for 2 h with either an H2S inhibitor (β-cyano-1-alanine, 1 mM) or donor (diallyl trisulfide, 20 uM), washed 3× with 1× phospate buffered saline, the media replaced, and the cells were immediately treated with for 15 min with 50, 100, and 200 μM t-butyl hydroperoxide (t-BOOH). Following treatment, the cells were washed 3× with phosphate-buffered saline, the media replaced and the cells cultured for 11 days. The resulting colonies were fixed and stained by water: methanol addition (1:1) containing crystal violet (1 g/l). “Colonies” consisted of cell clusters containing greater than 50 cells when counted by dissecting microscopy.

In assay [4] the test system is DLD1 cell line containing the ATR-Seckel knock-in hypomorphic mutation (ATR-H cells). The experiment in a line: Colony forming-efficiency assay, ATR-H cells. As for the experimental part: as §1, §3
The subject of another assay is ATR-pS435 in ATR cells. The assay is described as follows: Western blot of ATR serine 435 phosphorylation, ATR cells. Here is the method: as §1
(§4) Western blotting: To prepare whole cell lysates from ATR and ATR-H cells, the cells were grown in 6-well plates, the medium was removed, and 300 μl of SDS sample buffer (62.5 mM Tris-HCl (pH 6.8), 2% w/v SDS, 10% glycerol, 50 mM dithiothreitol, 0.1% w/v bromphenol blue) was added to each well. Following lysis in SDS sample buffer, lysates were harvested with cell scrapers and collected in Eppendorf tubes. The lysates were boiled, centrifuged, and frozen at −20° C. until gel electrophoresis was performed. The protein concentrations were measured by Bio-rad DC protein assay. Twenty […] of total protein supernatant extract was mixed with 2×SDS loading buffer according to protein concentration. Lysates separated by SDS-PAGE were transferred to polyvinylidene difluoride membranes, and membranes were blocked in 5% nonfat dry milk before the addition of primary antibodies. Densitometry was performed with ImageJ software version 1.45 s. All western blots were performed at least in triplicate.
In general terms: Immunoblotting shows a protein as a band on a membrane.

The subject of another assay is ATR-pS435 in ATR-H cells. The assay is described as follows: Western blot of ATR serine 435 phosphorylation, ATR-H cells. As for the experimental part: as §1, §4
The subject of assay [5] is CHK1 serine-345 phosphorylation in ATR cells. The experiment in a line: Western blot of CHK1 serine 345 phosphorylation, ATR cells. Here is the method: as §1, §4
Assay [6] concerns ATR-H cells. The assay is described as follows: dsDNA breaks in metaphase chromosomal preparations, ATR-H cells. Here is the method:
as §1
(§5) Chromosomal preparation and analysis: One 100-mm tissue culture plate/treatment of logarithmically growing ATR and ATR-H cells at 50% confluence were treated with or without, 1 mM H2S inhibitor β-cyano-l-alanine for two hours, followed by a 15-minute treatment with 10 μM t-BOOH. Following this treatment, the cells were washed 3× with phosphate-buffered saline, the media replaced, and the cells cultured for 1 h. Colcemid (100 ng/ml) was then added for 4 h and the cells harvested by washing 2× in 1×PBS, followed by trypsinization and transference to a 15 ml tube. Two-ml of DMEM with 5% FBS was added/tube and the cells were pelleted 5 min at 500×g. The cells were re-suspended in 5 ml […] and incubated 15 min at 37° C. About 200 μl of fresh methanol: glacial acetic acid at 3:1 (Carnoy's fixative) was added, the cells gently vortexed, and pelleted for 5 min at 500×g. The supernatant was removed and 5 ml of Carnoy's fixative added with gentle vortexing. The cells were pelleted for 5 min at 500×g, the supernatant removed, and 5 ml of Carnoy's fixative was added with gentle vortexing. Chromosomal preparations were made by pelleting the preparations for 5 min at 500×g, removing the supernatant, dropping on slides, drying for 30 min at 90° C., Giemsa staining, washing, and cover-slipping. Each data point represents 5000 individual chromosomal observations preformed under oil immersion microscopy done in triplicate.

For assay [7], the system named is CHK1 serine-345 phosphorylation in ATR-H cells. The assay is described as follows: Western blot of CHK1 serine 345 phosphorylation, ATR-H cells. Particulars: 2 h 1 mM β-cyano-l-alanine with or without 15 min 10 μM t-BOOH. Here is the method: as §1, §4
Assay [8] relates to ATR cells. The assay is described as follows: dsDNA breaks in metaphase chromosomal preparations, ATR cells. To be noted: 2 h 1 mM β-cyano-l-alanine followed by 10 μM t-BOOH. Here is the method: as §1
as §5, with “The cells were pelleted for 5 min at 500×g, the supernatant removed, and 5 ml of Carnoy's fixative was added with gentle vortexing. Chromosomal preparations were made by pelleting the preparations for 5 min at 500×g, removing the supernatant, dropping on slides, drying for 30 min at 90° C., Giemsa staining, washing, and cover-slipping. Each data point represents 5000 individual chromosomal observations preformed under oil immersion microscopy done in triplicate.” left out

[9] abbreviates: ATR wild-type cells, 2 h 1 mM β-cyano-l-alanine.

For `Nc1nc(N)c(N=O)c(OCC2CCCCC2)n1` [NU6027], the “cellular free H2S concentration” value in the assay on ATR cells [1] (2 h 12 μM NU6027) is “significantly decreased”; in the assay with ATR-H cells [2] (2 h 12 μM NU6027), “but not the ATR-H cells”.
Consider `C=CCSSSCC=C` [diallyl trisulfide], for which the “colony formation, H2S donor pretreatment” value in [3] (2 h 20 μM diallyl trisulfide) is recorded as “significantly decreased”; in [4] (2 h 20 μM diallyl trisulfide, 11 days) it was “significantly decreased”. Also, the “cellular free H2S concentration” value in the assay on ATR cells [1] (2 h 20 μM diallyl trisulfide) is given as “suppressed”. The ATR-pS435 level result in the assay on ATR-pS435 in ATR cells (ATR wild-type cells, 2 h 20 μM diallyl trisulfide) was “inhibited this phosphorylation”; with ATR-pS435 in ATR-H cells (2 h 20 μM diallyl trisulfide), “not affected by any treatment”. Further, the “CHK1 serine-345 phosphorylation after t-BOOH, H2S donor pretreatment” value in assay [5] (ATR wild-type cells, H2S donor pretreatment, then t-BOOH) is “did not significantly alter”.
`CC(C)(C)OO` [t-BOOH, t-butyl hydroperoxide]: the “colony formation suppression by t-BOOH” value is “colony formation suppression was t-BOOH dose-dependent” in assay [3] (15 min 50, 100 or 200 μM t-BOOH) and “colony formation suppression was t-BOOH dose-dependent” in assay [4] (15 min 50, 100 or 200 μM t-BOOH, 11 days). Also, the “induction of ATR-pS435 levels” value with ATR-pS435 in ATR cells (ATR wild type cells, 100 μM t-BOOH 15 min, then 45 min in media) is roughly 50%. In addition, in the assay on ATR-pS435 in ATR-H cells (100 μM t-BOOH 15 min, then 45 min in media), the ATR-pS435 level result is “not increased”. For the same compound, the dsDNA break formation result in the assay on ATR-H cells [6] (15 min 10 μM t-BOOH alone) was “significantly increased dsDNA break formation”.
As for `N#CC[C@H](N)C(=O)O` [β-cyano-l-alanine], the “sensitivity of colony formation to t-BOOH after H2S inhibitor pretreatment” value in assay [3] was “slightly increased the sensitivity of the ATR cells”; in assay [3] (listed as H2S inhibitor) it was “only significantly potentiated t-BOOH toxicity at the two higher doses”; in [4] (2 h 1 mM β-cyano-l-alanine, then 15 min 50, 100 or 200 μM t-BOOH, 11 days, compared to ATR wild-type cells), “significantly more sensitive to the same t-BOOH exposures”. The “colony formation, H2S inhibitor pretreatment with 200 μM t-BOOH versus 200 μM t-BOOH alone” value in assay [4] (200 μM t-BOOH) is on record as “not significantly different”. Further, in [4] (2 h 1 mM β-cyano-l-alanine, no t-BOOH, 11 days), the “colony formation, H2S inhibitor by itself” value is “suppressed ATR-H cell colony formation”. In addition, the “cellular free H2S concentration” value in the assay on ATR cells [1] (2 h 1 mM β-cyano-l-alanine) and in the assay with ATR-H cells [2] (2 h 1 mM β-cyano-l-alanine) was “significantly lowered” throughout. In addition, the values for the ATR-pS435 level entry in the assay on ATR-pS435 in ATR cells (setting [9]) and in the assay on ATR-pS435 in ATR-H cells (2 h 1 mM β-cyano-l-alanine) were “increased ATR-pS435” and “not affected by any treatment”, respectively. The “increase of ATR-pS435 compared to untreated cell phosphorylation levels” value in the assay on ATR-pS435 in ATR cells (setting [9]) was roughly 50%. Further, in [5] (ATR cells, 2 h 1 mM β-cyano-l-alanine, then 15 min 10 μM t-BOOH, harvest at 45 min), the “CHK1 serine-345 phosphorylation after t-BOOH, with versus without H2S inhibitor pretreatment” value is given as “significantly increased”. Also, in assay [7], the “CHK1 serine-345 phosphorylation level changes” value is “failed to show significant CHK1 serine-345 phosphorylation level changes”. The dsDNA breaks result in the assay with ATR cells [8], with ATR-H cells [6] (1 mM β-cyano-l-alanine alone) and with ATR-H cells [6] (2 h 1 mM β-cyano-l-alanine followed by 10 μM t-BOOH) was “significantly increased dsDNA breaks” each time.
